Experimental data as given in publication PMC8184751, “Proline/arginine dipeptide repeat polymers derail protein folding in amyotrophic lateral sclerosis” (Nature Communications, 2021).
“Also recorded” adds a separate entry of the source.

Key:
[1] = target: T1, PPIA (Homo sapiens, UniProt P62937); assay: NMR titration of 15N-labeled PPIA with dipeptide repeat polymers (1H-15N HSQC); type: binding; settings: for Arg55 csp / Arg55 I/I0 (titration, SI Fig 2b): 40 µM 15N-PPIA; for Arg55 csp / I/I0 of the HSQC cross-peak of PPIA residue 55 (SI Fig 2a) / Arg55 I/I0 (titration, SI Fig 2b): pH 7.4, 298 K; for I/I0 of the HSQC cross-peak of PPIA residue 55 (SI Fig 2a): eightfold excess of peptide (320 µM) over 40 µM 15N-PPIA; for binding to PPIA judged from NMR signals: eightfold excess of peptide over PPIA, 1H-15N HSQC
T1 construct: His-tag (cleaved yes); made in house; host or cells: Escherichia coli BL21(DE3)
T1 sequence (P62937 whole entry): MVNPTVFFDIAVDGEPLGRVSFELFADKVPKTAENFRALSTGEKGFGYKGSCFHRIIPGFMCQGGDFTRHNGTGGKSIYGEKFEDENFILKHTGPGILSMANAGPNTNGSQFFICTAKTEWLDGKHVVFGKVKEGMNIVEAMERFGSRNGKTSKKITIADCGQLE
Procedure: Titration of ^15N-labeled PPIA with dipeptide repeat polymers (PR20, GR20, GP20, AP20, PR10, PR5, and PR2) were carried out in 25 mM HEPES buffer with 100 mM NaCl, 2 mM DTT, 0.01% NaN3, and 10% D20 at pH 7.4. For 40 µM protein, the ligand concentrations were increased from 0 to 320 µM in five steps. For the PPIA/GP20 and PPIA/AP20 titrations, the concentration of the repeat polymer was further increased up to 3200 µM. Two-dimensional ^15N-^1H HSQC spectra[41] were acquired at 298 K for each PPIA/repeat polymer ratio.
Kd calculations for the interactions of PPIA with PR repeats (PR5, PR10, and PR20) were made from the dipeptide repeat polymer-induced variations in PPIA cross-peak intensities, using the equation for slow exchange regime interactions:1 1−I/I0=Imax(Kd+P+x)−Kd+P+x^2−4×P×x/2P where I is the intensity of PPIA peaks in the presence of increasing ligand concentrations, I0 is the intensity of free protein, P is the total concentration of protein, x is the concentration of ligand, and Kd is the dissociation constant.
The error in 1−(I/I0) is taken to be the error in the experimental quantity of I/I0 and has been calculated from the noise in HSQC spectra according to2 σI/I0=I/I0σI0/I0^2+σ(I)/I^2 where σ(I/Io) is the error in I/I0, σ(Io) and σ(I) are the noise (RMS value of background noise from various regions) in the HSQC spectrum of PPIA alone and that of PPIA in the presence of ligand, respectively.
In case of the PPIA/GP20- and PPIA/AP20 interactions, the Kd value was calculated from the equation for fast exchange interactions using chemical shift perturbations (CSP) according to3 CSP=CSPmax(Kd+P+x)−(Kd+P+x)^2−4×P×x/2P where4 CSP=(δH)^2+δN/6.5^2
Imax and CSPmax were treated as independent free fit parameters for the residues. The error value in the Kd is the standard error of fitting.

[2] = target: T2, RNaseT1 (Aspergillus oryzae, UniProt P00651); assay: Refolding of RNaseT1 without PPIA (self-folding control with PR20); type: biochemical; settings: for exponential folding rate constant k of RNaseT1, no PPIA: Rnase T1:PR20=1:175, no CypA, same conditions
T2 construct: purchased Thermo Fischer
T2 sequence (P00651 27-130): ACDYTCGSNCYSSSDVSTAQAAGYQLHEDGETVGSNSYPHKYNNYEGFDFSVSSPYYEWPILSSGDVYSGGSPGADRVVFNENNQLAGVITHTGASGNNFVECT
Procedure: (§1) RNaseT1 (purchased from Thermo Fischer) was unfolded by incubating in 6.9 M urea at 10 °C for 2 h in 100 mM Tris-HCl buffer at pH 8. Refolding of RNaseT1 was initiated by diluting it 35 times with same buffer such that the final concentration of RNaseT1 was 2.27 µM and urea 0.197 M. Tryptophan fluorescence emission was measured at 320 nm (excitation wavelength = 280 nm) during refolding for 1 h on a Cary Eclipse Fluorescence Spectrophotometer at 10 °C. In experiments with PR20, PPIA, or both, they were added to the dilution buffer and incubated at 10 °C for 2 h prior to mixing. Data were normalized and averaged for graphical representation. The exponential constants, k, for the increasing fluorescence intensities were obtained from fitting a mono-exponential function to the experimental data in Graph Pad Prism.

[3] = target: T1, PPIA; assay: PPIA-catalysed refolding of urea-unfolded RNaseT1 (tryptophan fluorescence); type: biochemical
Procedure: as §1

[4] = target: PPIA; settings: read-out: binding affinity to the enzyme; cited from earlier work
[5] = target: T3, prolyl isomerase PPIA (human, UniProt P62937 2-164); assay: NMR titration; 40 µM 15N-labeled PPIA titrated with GP20 or AP20 up to 3200 µM; 1H-15N HSQC at 298 K; 25 mM HEPES, 100 mM NaCl, 2 mM DTT, pH 7.4; Kd from chemical shift perturbations (equation for fast exchange); settings: both partners purified
T3 construct: human PPIA (peptidyl-prolyl cis-trans isomerase A, cyclophilin A); gene cloned into a modified pET28a vector; 15N-labeled for the NMR titrations, unlabeled for ITC, crystallography and folding assays; source: E. coli BL21(DE3), purified (Ni-NTA, TEV cleavage, Superdex 75); 15N-labeled in M9 minimal media for NMR
T3 sequence (P62937 2-164): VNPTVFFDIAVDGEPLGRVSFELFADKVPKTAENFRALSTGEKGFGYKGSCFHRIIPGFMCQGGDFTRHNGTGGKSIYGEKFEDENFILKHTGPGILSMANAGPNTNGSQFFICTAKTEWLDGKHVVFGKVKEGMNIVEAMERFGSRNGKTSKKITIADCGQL

[6] = target: T3, prolyl isomerase PPIA; assay: NMR titration; 40 µM 15N-labeled PPIA titrated with repeat polymer from 0 to 320 µM in five steps; 1H-15N HSQC at 298 K; 25 mM HEPES, 100 mM NaCl, 2 mM DTT, pH 7.4; Kd from the attenuation of the cross-peak of Arg55 (equation for slow exchange); settings: both partners purified
[7] = target: T3, prolyl isomerase PPIA; assay: ITC; 44 µM PPIA in the cell titrated with 650 µM PR20 in the syringe; 10 °C; 25 mM HEPES, 100 mM NaCl, 1 mM TCEP, pH 7.4; number of binding sites fixed to one; settings: both partners purified

Ac-APAPAPAPAPAPAPAPAPAPAPAPAPAPAPAPAPAPAPAP-NH2 [AP20]
Arg55 csp ([1]; peptide conc. 32 uM): 0.009725 | Arg55 csp ([1]; peptide conc. 160 uM): 0.03975 | Arg55 csp ([1]; peptide conc. 320 uM): 0.06372 | Arg55 csp ([1]; peptide conc. 640 uM): 0.09595 | Arg55 csp ([1]; peptide conc. 1280 uM): 0.1279 | Arg55 csp ([1]; peptide conc. 3200 uM): 0.1597

Ac-GPGPGPGPGPGPGPGPGPGPGPGPGPGPGPGPGPGPGPGP-NH2 [GP20]
Arg55 csp ([1]; peptide conc. 32 uM): 0.002383 | Arg55 csp ([1]; peptide conc. 96 uM): 0.006761 | Arg55 csp ([1]; peptide conc. 160 uM): 0.01147 | Arg55 csp ([1]; peptide conc. 320 uM): 0.01968 | Arg55 csp ([1]; peptide conc. 640 uM): 0.034 | Arg55 csp ([1]; peptide conc. 1280 uM): 0.04768 | Arg55 csp ([1]; peptide conc. 2560 uM): 0.06404 | Arg55 csp ([1]; peptide conc. 3200 uM): 0.07024

Ac-PRPRPRPRPR-NH2 [PR5]
Kd [1]: 48.5 µM | I/I0 of the HSQC cross-peak of PPIA residue 55 (SI Fig 2a) [1]: 0.1037

Ac-PRPRPRPRPRPRPRPRPRPR-NH2 [PR10]
Kd [1]: 27.1 µM | I/I0 of the HSQC cross-peak of PPIA residue 55 (SI Fig 2a) [1]: 0.1506

Ac-PRPRPRPRPRPRPRPRPRPRPRPRPRPRPRPRPRPRPRPR-NH2 [PR20]
I/I0 of the HSQC cross-peak of PPIA residue 55 (SI Fig 2a) [1]: -0.02438 | Arg55 I/I0 (titration, SI Fig 2b) ([1]; ligand conc 9.6 uM): 0.211 | Arg55 I/I0 (titration, SI Fig 2b) ([1]; ligand conc 32 uM): 0.472 | Arg55 I/I0 (titration, SI Fig 2b) ([1]; ligand conc 96 uM): 0.746 | Arg55 I/I0 (titration, SI Fig 2b) ([1]; ligand conc 160 uM): 0.931 | Arg55 I/I0 (titration, SI Fig 2b) ([1]; ligand conc 320 uM): 1.02 | exponential folding rate constant k of RNaseT1, no PPIA ([2]; independent experiment 2 of 3): 0.1365 | exponential folding rate constant k of RNaseT1, no PPIA ([2]; independent experiment 3 of 3): 0.1365 | refolding kinetics of RNaseT1 in the presence of PR20, no PPIA ([2]; large excess of PR20, 10 °C, pH 8): unchanged | exponential folding rate constant k of RNaseT1 ([3]; Rnase T1:CypA:PR20=1:0.033:7, 2.27 µM RNaseT1, 100 mM Tris-HCl pH 8, 10 °C, fluorescence 320 nm, mono-exponential fit, independent experiment 1 of 3): 0.2834 | exponential folding rate constant k of RNaseT1 ([3]; Rnase T1:CypA:PR20=1:0.033:7, same conditions, independent experiment 2 of 3): 0.2936 | exponential folding rate constant k of RNaseT1 ([3]; Rnase T1:CypA:PR20=1:0.033:7, same conditions, independent experiment 3 of 3): 0.3078 | exponential folding rate constant k of RNaseT1 ([3]; Rnase T1:CypA:PR20=1:0.033:20, 2.27 µM RNaseT1, pH 8, 10 °C, mono-exponential fit, independent experiment 1 of 3): 0.2235 | exponential folding rate constant k of RNaseT1 ([3]; Rnase T1:CypA:PR20=1:0.033:20, same conditions, independent experiment 2 of 3): 0.3061 | exponential folding rate constant k of RNaseT1 ([3]; Rnase T1:CypA:PR20=1:0.033:20, same conditions, independent experiment 3 of 3): 0.2847 | exponential folding rate constant k of RNaseT1 ([3]; Rnase T1:CypA:PR20=1:0.033:46, 2.27 µM RNaseT1, pH 8, 10 °C, mono-exponential fit, independent experiment 1 of 3): 0.2129 | exponential folding rate constant k of RNaseT1 ([3]; Rnase T1:CypA:PR20=1:0.033:46, same conditions, independent experiment 2 of 3): 0.2303 | exponential folding rate constant k of RNaseT1 ([3]; Rnase T1:CypA:PR20=1:0.033:46, same conditions, independent experiment 3 of 3): 0.2811 | exponential folding rate constant k of RNaseT1 ([3]; Rnase T1:CypA:PR20=1:0.033:175, 2.27 µM RNaseT1, pH 8, 10 °C, mono-exponential fit, independent experiment 1 of 3): 0.1927 | exponential folding rate constant k of RNaseT1 ([3]; Rnase T1:CypA:PR20=1:0.033:175, same conditions, independent experiment 2 of 3): 0.1913 | exponential folding rate constant k of RNaseT1 ([3]; Rnase T1:CypA:PR20=1:0.033:175, same conditions, independent experiment 3 of 3): 0.202 | effect on the catalyzing effect of PPIA on RNaseT1 folding ([3]; increasing PR20: 7, 20, 46, 175 times excess over RNaseT1): inhibited the catalyzing effect of PPIA in a dose-dependent manner

GR20: 20-dipeptide glycine/arginine repeat polymer, acetylated and amidated termini
binding to PPIA judged from NMR signals [1]: does not bind to PPIA | Arg55 I/I0 (titration, SI Fig 2b) ([1]; ligand conc 9.6 uM): 0.0912 | Arg55 I/I0 (titration, SI Fig 2b) ([1]; ligand conc 32 uM): 0.0182 | Arg55 I/I0 (titration, SI Fig 2b) ([1]; ligand conc 96 uM): -0.00762 | Arg55 I/I0 (titration, SI Fig 2b) ([1]; ligand conc 160 uM): 0.124 | Arg55 I/I0 (titration, SI Fig 2b) ([1]; ligand conc 320 uM): -0.0665

PR2: two PR dipeptides, the four-residue peptide, acetylated and amidated termini (Ac-PRPR-NH2)
I/I0 of the HSQC cross-peak of PPIA residue 55 (SI Fig 2a) [1]: 0.9376 | binding to PPIA judged from NMR signals [1]: does not efficiently bind; also recorded: abrogated the binding to PPIA

cyclosporin A
Kd [4]: 0.013 ± 0.004 µM

B1: dipeptide repeat polymer GP20 (peptide)
peptide: Ac-GPGPGPGPGPGPGPGPGPGPGPGPGPGPGPGPGPGPGPGP-NH2
notes: also called glycine/proline repeat polymer; source: synthetic peptide (solid-phase peptide synthesis)
Kd [5]: 1190 µM

B2: PR repeat polymer with five PR dipeptides (PR5) (peptide)
peptide: Ac-PRPRPRPRPR-NH2
notes: source: synthetic peptide (solid-phase peptide synthesis)
Kd [6]: 49 µM

B3: dipeptide repeat polymer AP20 (peptide)
peptide: Ac-APAPAPAPAPAPAPAPAPAPAPAPAPAPAPAPAPAPAPAP-NH2
notes: also called alanine/proline repeat polymer; source: synthetic peptide (solid-phase peptide synthesis)
Kd [5]: 597 µM

B4: PR repeat polymer with ten PR dipeptides (PR10) (peptide)
peptide: Ac-PRPRPRPRPRPRPRPRPRPR-NH2
notes: as for B2
Kd [6]: 27 µM

B5: PR repeat polymer with 20 repeats (PR20) (peptide)
peptide: Ac-PRPRPRPRPRPRPRPRPRPRPRPRPRPRPRPRPRPRPRPR-NH2
notes: dipeptide repeat polymer translated from the C9orf72 hexanucleotide repeat expansion; Only eight residues of the polymer could be built in the asymmetric unit of PDB 7ABT; also called 20-dipeptide polymer PR20; 20-repeat PR polymer; source: synthetic peptide (solid-phase peptide synthesis)
Kd [7]: ~50 µM | Kd [6]: 23 µM
